Data published in patent US20230365592A1 (Agios Pharmaceuticals, Inc., priority 2022, published 2023).

Target: T1, human PAH with the R408W mutation (Homo sapiens, UniProt P00439, R408W)
T1 construct: expressed in transfected cells
T1 sequence (P00439 1-452 R408W): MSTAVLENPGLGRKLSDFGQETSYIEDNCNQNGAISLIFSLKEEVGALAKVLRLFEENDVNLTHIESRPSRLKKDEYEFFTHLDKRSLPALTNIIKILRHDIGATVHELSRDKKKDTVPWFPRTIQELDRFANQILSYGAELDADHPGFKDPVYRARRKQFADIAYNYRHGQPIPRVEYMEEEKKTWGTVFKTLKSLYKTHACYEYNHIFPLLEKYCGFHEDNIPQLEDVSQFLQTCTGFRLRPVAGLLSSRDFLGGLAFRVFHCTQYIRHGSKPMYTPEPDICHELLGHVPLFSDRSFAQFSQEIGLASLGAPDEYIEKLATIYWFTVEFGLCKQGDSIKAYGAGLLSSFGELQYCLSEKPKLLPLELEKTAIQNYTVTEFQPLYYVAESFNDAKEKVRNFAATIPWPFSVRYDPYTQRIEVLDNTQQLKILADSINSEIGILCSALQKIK
Assay: Cell Based Phenylalanine Flux Assay;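 further: after compound treatment, cells received sepiapterin plus isotope-labelled Phenylalanine for 4 hours, then labelled Tyrosine in the medium was quantified, 10-point 2-fold dilution series run in duplicate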
Conditions: A375 cells expressing human R408W PAH; 24 hrs compound incubation; 13C-Tyrosine by LC-MS; average where tested multiple times; read-out: AC50

AC50 | SMILES
1000 to 5000 nM | O=C(c1nnc(-c2ccn(C(F)(F)F)n2)o1)N1CCc2[nH]cnc2[C@@H]1c1cc2c(C(F)F)cccn2n1 [Example 1481, (R)-(4-(4-(difluoromethyl)pyrazolo[1,5-a]pyridin-2-yl)-6,7-dihydro-1H-imidazo[4,5-c]pyridin-5(4H)-yl)(5-(1-(trifluoromethyl)-1H-pyrazol-3-yl)-1,3,4-oxadiazol-2-yl)methanone]
1000 to 5000 nM | CC(C)c1nnc(C(=O)N2CCc3[nH]cnc3[C@@H]2c2cc3c(Cl)cccn3n2)o1 [Example 1485, (R)-(4-(4-chloropyrazolo[1,5-a]pyridin-2-yl)-6,7-dihydro-1H-imidazo[4,5-c]pyridin-5(4H)-yl)(5-isopropyl-1,3,4-oxadiazol-2-yl)methanone]
< 500 nM | CC(C)c1nnc(C(=O)N2CCc3[nH]cnc3[C@H]2c2cc3c(C(F)(F)F)cccn3n2)o1 [Example 1486, (S)-(5-isopropyl-1,3,4-oxadiazol-2-yl)(4-(4-(trifluoromethyl)pyrazolo[1,5-a]pyridin-2-yl)-6,7-dihydro-1H-imidazo[4,5-c]pyridin-5(4H)-yl)methanone]
> 5000 nM | CC(C)c1nnc(C(=O)N2CCc3[nH]cnc3[C@@H]2c2cc3c(C(F)(F)F)cccn3n2)o1 [Example 1487, (R)-(5-isopropyl-1,3,4-oxadiazol-2-yl)(4-(4-(trifluoromethyl)pyrazolo[1,5-a]pyridin-2-yl)-6,7-dihydro-1H-imidazo[4,5-c]pyridin-5(4H)-yl)methanone]
< 500 nM | CC(C)c1nnc(C(=O)N2CCc3[nH]cnc3[C@H]2c2cc3cccc(Cl)n3n2)o1 [Example 1488, (S)-(4-(7-chloropyrazolo[1,5-a]pyridin-2-yl)-6,7-dihydro-1H-imidazo[4,5-c]pyridin-5(4H)-yl)(5-isopropyl-1,3,4-oxadiazol-2-yl)methanone]
1000 to 5000 nM | Cc1cccc2cc([C@H]3c4nc[nH]c4CCN3C(=O)c3nnc(C(C)C)o3)nn12 [Example 1491, (R)-(5-isopropyl-1,3,4-oxadiazol-2-yl)(4-(7-methylpyrazolo[1,5-a]pyridin-2-yl)-6,7-dihydro-1H-imidazo[4,5-c]pyridin-5(4H)-yl)methanone]
500 to 1000 nM | CC(C)c1nnc(C(=O)N2CCc3[nH]cnc3[C@H]2c2cc3cccc(C(F)F)n3n2)o1 [Example 1492, (S)-(4-(7-(difluoromethyl)pyrazolo[1,5-a]pyridin-2-yl)-6,7-dihydro-1H-imidazo[4,5-c]pyridin-5(4H)-yl)(5-isopropyl-1,3,4-oxadiazol-2-yl)methanone]
1000 to 5000 nM | CC(C)c1nnc(C(=O)N2CCc3[nH]cnc3[C@@H]2c2cc3cccc(C(F)F)n3n2)o1 [Example 1493, (R)-(4-(7-(difluoromethyl)pyrazolo[1,5-a]pyridin-2-yl)-6,7-dihydro-1H-imidazo[4,5-c]pyridin-5(4H)-yl)(5-isopropyl-1,3,4-oxadiazol-2-yl)methanone]
< 500 nM | Cc1ncccc1-c1nnc(C(=O)N2CCc3[nH]cnc3[C@H]2c2cc3cccc(F)n3n2)o1 [Example 1494, (S)-(4-(7-fluoropyrazolo[1,5-a]pyridin-2-yl)-6,7-dihydro-1H-imidazo[4,5-c]pyridin-5(4H)-yl)(5-(2-methylpyridin-3-yl)-1,3,4-oxadiazol-2-yl)methanone]
> 5000 nM | Cc1ncccc1-c1nnc(C(=O)N2CCc3[nH]cnc3[C@@H]2c2cc3cccc(F)n3n2)o1 [Example 1495, (R)-(4-(7-fluoropyrazolo[1,5-a]pyridin-2-yl)-6,7-dihydro-1H-imidazo[4,5-c]pyridin-5(4H)-yl)(5-(2-methylpyridin-3-yl)-1,3,4-oxadiazol-2-yl)methanone]

The remaining lines, values behind:

SMILES | AC50
O=C(c1nnc(-c2cccnc2)o1)N1CCc2[nH]cnc2[C@H]1c1cc2cccc(C(F)F)n2n1 [Example 1468, (S)-(4-(7-(difluoromethyl)pyrazolo[1,5-a]pyridin-2-yl)-6,7-dihydro-1H-imidazo[4,5-c]pyridin-5(4H)-yl)(5-(pyridin-3-yl)-1,3,4-oxadiazol-2-yl)methanone] | < 500 nM
O=C(c1nnc(-c2cccnc2)o1)N1CCc2[nH]cnc2[C@@H]1c1cc2cccc(C(F)F)n2n1 [Example 1469, (R)-(4-(7-(difluoromethyl)pyrazolo[1,5-a]pyridin-2-yl)-6,7-dihydro-1H-imidazo[4,5-c]pyridin-5(4H)-yl)(5-(pyridin-3-yl)-1,3,4-oxadiazol-2-yl)methanone] | > 5000 nM
Cc1cccc(-c2nnc(C(=O)N3CCc4[nH]cnc4[C@H]3c3cc4c(F)cccn4n3)o2)n1 [Example 1470, (S)-(4-(4-fluoropyrazolo[1,5-a]pyridin-2-yl)-6,7-dihydro-1H-imidazo[4,5-c]pyridin-5(4H)-yl)(5-(6-methylpyridin-2-yl)-1,3,4-oxadiazol-2-yl)methanone] | < 500 nM
Cc1cccn2nc([C@@H]3c4nc[nH]c4CCN3C(=O)c3nnc(-c4cnn(C(F)(F)F)c4)o3)cc12 [Example 1472, (S)-(4-(4-methylpyrazolo[1,5-a]pyridin-2-yl)-6,7-dihydro-1H-imidazo[4,5-c]pyridin-5(4H)-yl)(5-(1-(trifluoromethyl)-1H-pyrazol-4-yl)-1,3,4-oxadiazol-2-yl)methanone] | 500 to 1000 nM
Cc1cccn2nc([C@H]3c4nc[nH]c4CCN3C(=O)c3nnc(-c4cnn(C(F)(F)F)c4)o3)cc12 [Example 1473, (R)-(4-(4-methylpyrazolo[1,5-a]pyridin-2-yl)-6,7-dihydro-1H-imidazo[4,5-c]pyridin-5(4H)-yl)(5-(1-(trifluoromethyl)-1H-pyrazol-4-yl)-1,3,4-oxadiazol-2-yl)methanone] | 1000 to 5000 nM
O=C(c1nnc(-c2ccn(C(F)(F)F)n2)o1)N1CCc2[nH]cnc2[C@@H]1c1cc2cccc(F)n2n1 [Example 1475, (R)-(4-(7-fluoropyrazolo[1,5-a]pyridin-2-yl)-6,7-dihydro-1H-imidazo[4,5-c]pyridin-5(4H)-yl)(5-(1-(trifluoromethyl)-1H-pyrazol-3-yl)-1,3,4-oxadiazol-2-yl)methanone] | 1000 to 5000 nM
O=C(c1nnc(-c2ccn(C(F)(F)F)n2)o1)N1CCc2[nH]cnc2[C@@H]1c1cc2c(Cl)cccn2n1 [Example 1477, (R)-(4-(4-chloropyrazolo[1,5-a]pyridin-2-yl)-6,7-dihydro-1H-imidazo[4,5-c]pyridin-5(4H)-yl)(5-(1-(trifluoromethyl)-1H-pyrazol-3-yl)-1,3,4-oxadiazol-2-yl)methanone] | 1000 to 5000 nM
Cc1cccn2nc([C@@H]3c4nc[nH]c4CCN3C(=O)c3nnc(-c4ccn(C(F)(F)F)n4)o3)cc12 [Example 1478, (S)-(4-(4-methylpyrazolo[1,5-a]pyridin-2-yl)-6,7-dihydro-1H-imidazo[4,5-c]pyridin-5(4H)-yl)(5-(1-(trifluoromethyl)-1H-pyrazol-3-yl)-1,3,4-oxadiazol-2-yl)methanone] | < 500 nM
O=C(c1nnc(-c2ccn(C(F)(F)F)n2)o1)N1CCc2[nH]cnc2[C@H]1c1cc2c(C(F)F)cccn2n1 [Example 1480, (S)-(4-(4-(difluoromethyl)pyrazolo[1,5-a]pyridin-2-yl)-6,7-dihydro-1H-imidazo[4,5-c]pyridin-5(4H)-yl)(5-(1-(trifluoromethyl)-1H-pyrazol-3-yl)-1,3,4-oxadiazol-2-yl)methanone] | < 500 nM
